In PMC9728581 (Frontiers in Pharmacology, 2022):

How the values were obtained:
[1] = Population pharmacokinetic (NONMEM) model of unbound teicoplanin in Chinese adult patients; format: in vivo, human
Description: The pregnant female patients, hemodialysis patients, disseminated intravascular coagulation patients, and continuous renal replacement therapy patients were excluded.
(§1) However, prescribed dosing regimens were at the discretion of treating physicians based on the severity of the patient’s disease and the standard dosing regimen was not always followed. The daily dose range of patients included in this study was 50–1,600 mg.
(§2) Blood samples were typically collected within 30 min to 1 h preceding the 4th dose and the 6th dose, and depending on the actual clinical situation, blood samples might be taken at other time for TDM during the treatment. The Plasma samples were placed in a Centrifree® ultrafiltration device and placed in a 37°C water bath for 30 min, followed by centrifugation at 37°C, 1,500 × g for 30 min, and the ultrafiltrate was directly used for the determination of unbound concentration by ultra-performance liquid chromatography-tandem mass spectrometry (UPLC-MS/MS) method. […] The average relative recovery ratio was 97.9%, and the matrix effect factor was 0.97. Details of blood handling, storage and measurement have been described previously ([Fu et al., 2020]).
The PopPK modeling was performed using NONMEM (non-linear mixed effects modeling, v7.2, Globomax Corp, United States), and Wings for NONMEM (v6.1, Nick Holford, University of Auckland, New Zealand) was used as an auxiliary software for NONMEM execution. R (v3.6.1, Saik Urien, U.R.C. Paris Centre, Hopital Tarnier, France) was used for exploratory data analysis, data assembly, and graphical presentation of modeling and simulation results.
The parameter estimation method for PopPK model was FOCEI (first order conditional estimation with η-ε interaction option). The inter-individual variability (IIV) of the parameters were estimated using exponential random effects. θi=θ∙e^ηi (5) Where θi is the estimated parameter value of the individual i, θ represents the typical population parameter, and ηi (IIV) is assumed to follow the normal distribution with mean of 0 and variance of ω^2 and was estimated during model fitting.
The additive, proportional, and mixed residual error models were compared separately, and finally the mixed residual error model was selected for data fitting.
Covariate modeling analysis was used to explore the source of variability.
The stepwise covariate modeling approach was used to establish the covariate model in this analysis. During the forward selection step, all covariates were added to the PK parameters in the base model one by one. Covariates were screened based on the changes in objective function values (OFV) and graphical evaluation. The covariate with a significant effect (p < 0.05, e.g., df = 1, ΔOFV ≥ 3.84) would be added to the basic model to build a full model. Based on the full model, the existing covariates were deleted one by one as the backward elimination step. For each deleted covariate, the increase in OFV should be ≥ 10.83 (p < 0.001, df = 1), otherwise, this covariate should be excluded from the final model.
Continuous covariates (e.g., WT) were added to the model according to the following equation. θi=θTV×(covi/covmedian)^θx (7) Where θi is the parameter value of the ith individual; θTV is the population typical value of PK parameters; covi is the covariate value of the ith individual; covmedian is the median value of this covariate; θx is the influence coefficient of the covariate on the parameters.
Categorical covariates (e.g., gender) were added to the model according to the following equations: θi=θTV+θx,cov=xl if Cov=Xl (8) θi=θTV if Cov=X0 (9) Where θx,cov=xl is the change in a parameter when covariate X is at level l compared with the reference level (0).
The performance and stability of the final model were estimated using non-parametric bootstrap. 1,000 datasets generated by random sampling were evaluated. […]

[2] = Unbound teicoplanin plasma concentration, ultrafiltration and UPLC-MS/MS; format: in vivo, human; conditions: plasma ultrafiltrate (Centrifree, 37°C), 103 observations, 72 patients, daily dose 50–1,600 mg i.v.
Description: as §1, §2

serum albumin = conditions: ref Gao et al., 2020; cited from earlier work
Description: In this study, the protein binding ratio was calculated as the average value of 92.5%.

[3] = ref Pauluzzi et al., 1987; cited from earlier work
Text: Previous studies have shown that adverse events inc ...

[4] = non-parametric bootstrap, 1,000 datasets

teicoplanin
θALB, bootstrap median [1, 4]: 1.55 g/L | θCL, bootstrap median [1, 4]: 11.38 L/h | θV, bootstrap median [1, 4]: 822 L | θeGFR, bootstrap median [1, 4]: 0.501 mL/min | θV, population typical value of the volume of distribution (NONMEM estimate) ([1]; unbound teicoplanin, one-compartment model, 72 patients, 103 observations, at ALB 32): 811 L | θCL, population typical value of clearance (NONMEM estimate) ([1]; unbound teicoplanin, one-compartment, first-order elimination, 72 Chinese adult patients, 103 observations, i.v. infusion, at eGFR 84): 11.7 L/h | Unbound teicoplanin concentrations, range [2]: 0.4 to 4.4 µg/mL | Unbound teicoplanin concentrations, mean ± SD ([2]; mostly trough, SD): 1.5 ± 0.9 µg/mL | bound to serum albumin (protein binding ratio) (serum albumin): 90%–95% | total Ctrough above which thrombocytopenia was more common [3]: > 60 µg/mL
